Key:
HS683 cells = conditions: 12 hours incubation; B content per 10^6 cells; FIG. 4
Procedure: (§1) 0.2 mg/g. 0.4 mg/g. 0.6 mg/g and 0.8 mg/g, added to U87MG, U251, A375, A549, HS683 and Hep cell lines cultured in 25 T petri dishes, respectively, and incubated in a thermostatic incubator for 12 hours. Subsequently, the cells and culture medium were separated, and the number of cells was determined. After digesting the cells with concentrated nitric acid, the B content in the cells was determined by ICP-AES.
(§2) Meanwhile, the BPA was formulated into aqueous solutions of 0.1 mg/g, 0.2 mg/g, 0.4 mg/g, 0.6 mg/g, and 0.8 mg/g, added into U87MG, U251, A375, A549, HS683 and Hep cell lines cultured in 25 T petri dishes, respectively, and incubated in a thermostatic incubator for 12 hours. Subsequently, the cells and culture medium were separated, and the number of cells was determined. After digesting the cells with concentrated nitric acid, the B content in the cells was determined by ICP-AES.
(§3) The […] is 249.772 nm. After determination, the B content contained in every 10^6 cells can be calculated and plotted in FIG. 4.

A375 cells = conditions: 12 hours incubation; B content per 10^6 cells; FIG. 4
Procedure: as §1, §2, §3

N-4-carboxyphenylboronic acid amide-arginine-lysine-lysine-lysine-arginine-arginine-glutamine-arginine-arginine-arginine [compound 2]
uptake in cerebral glioma HS683 cells compared with BPA (HS683 cells): significantly higher than BPA | uptake in A375 cells compared with BPA (A375 cells): significantly higher than BPA

From US20250152612A1, “POLYPEPTIDE COUPLED BORON CARRYING AGENT, PREPARATION METHOD THEREFOR, AND PHARMACEUTICAL FORMULATION” (Peking University, priority 2021, published 2025)
